pEC50: −log10 of the molar value. A value given as a limit tells only on which side of the number the result lay.

The test system of the first test is HBV rcDNA in HepDE19 cells. The test is described as follows: HepDE19 assay with bDNA quantitation of HBV rcDNA. Particulars: HepDE19 cells, 7 day incubation, rcDNA measured by Quantigene 2.0 bDNA assay; top concentration 25 µM; read-out: DE-19bDNA EC50. Format: cell-based, hepatitis B virus. In short, it runs like this:
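HepDE19 cells were induced by tetracycline withdrawal, then treated with compounds (0.5% DMSO final) for 7 days at 37 °C. HBV rcDNA measured by bDNA assay with HBV-specific probes. Viability assessed on replicate plates (5,000 cells/well, 4 days) by CellTiter-Glo ATP content.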
For `CC(c1n[nH]c(=O)c2cc(F)c(F)cc12)N(C)C(=O)c1cc2c(C(F)F)cc(F)cc2[nH]1` (single isomer, unassigned) [Compound 97, N-(1-(6,7-difluoro-4-oxo-3,4-dihydrophthalazin-1-yl)ethyl)-4-(difluoromethyl)-6-fluoro-N-methyl-1H-indole-2-carboxamide], the pEC50 was 7.70.
The same measure, in the same setting: the figure for `CC(c1n[nH]c(=O)c2cc(F)c(F)cc12)N(C)C(=O)c1cc2c(C(F)F)cccn2c1` (single isomer, unassigned) [Compound 98, N-(1-(6,7-difluoro-4-oxo-3,4-dihydrophthalazin-1-yl)ethyl)-8-(difluoromethyl)-N-methylindolizine-2-carboxamide] is 5.13.
The same measure, in the same setting: to `CC(c1n[nH]c(=O)c2cc(F)c(F)cc12)N(C)C(=O)c1cc2c(C(F)F)cccn2c1` (single isomer, unassigned) [Compound 99, N-(1-(6,7-difluoro-4-oxo-3,4-dihydrophthalazin-1-yl)ethyl)-8-(difluoromethyl)-N-methylindolizine-2-carboxamide] belongs 8.00; to `CC(c1n[nH]c(=O)c2cc(F)c(F)cc12)N(C)C(=O)c1cc(F)c(Br)c(F)c1` (single isomer, unassigned) [Compound 100, 4-bromo-N-(1-(6,7-difluoro-4-oxo-3,4-dihydrophthalazin-1-yl)ethyl)-3,5-difluoro-N-methylbenzamide], 5.33; to `CC(c1n[nH]c(=O)c2cc(F)c(F)cc12)N(C)C(=O)c1cc(F)c(Br)c(F)c1` (single isomer, unassigned) [Compound 101, 4-bromo-N-(1-(6,7-difluoro-4-oxo-3,4-dihydrophthalazin-1-yl)ethyl)-3,5-difluoro-N-methylbenzamide], 7.30.
On the same count and under the same terms, to `CC(c1n[nH]c(=O)c2cc(F)c(F)cc12)N(C)C(=O)c1cc2sc(F)cc2[nH]1` (single isomer, unassigned) [Compound 102, N-(1-(6,7-difluoro-4-oxo-3,4-dihydrophthalazin-1-yl)ethyl)-2-fluoro-N-methyl-4H-thieno[3,2-b]pyrrole-5-carboxamide] belongs 5.42; to `CC(c1n[nH]c(=O)c2cc(F)c(F)cc12)N(C)C(=O)c1cc2sc(F)cc2[nH]1` (single isomer, unassigned) [Compound 103, N-(1-(6,7-difluoro-4-oxo-3,4-dihydrophthalazin-1-yl)ethyl)-2-fluoro-N-methyl-4H-thieno[3,2-b]pyrrole-5-carboxamide], 7.22.
With `CC(c1n[nH]c(=O)c2cc(F)c(F)cc12)N(C)C(=O)c1ccc2ccn(C)c2c1` (single isomer, unassigned) [Compound 104, N-(1-(6,7-difluoro-4-oxo-3,4-dihydrophthalazin-1-yl)ethyl)-N,1-dimethyl-1H-indole-6-carboxamide], the pEC50 was under 4.60.
Consider `CC(c1n[nH]c(=O)c2cc(F)c(F)cc12)N(C)C(=O)c1ccc2ccn(C)c2c1` (single isomer, unassigned) [Compound 105, N-(1-(6,7-difluoro-4-oxo-3,4-dihydrophthalazin-1-yl)ethyl)-N,1-dimethyl-1H-indole-6-carboxamide], for which the negative-log EC50 (pEC50) was 6.00.
The same measure, in the same setting: to `CC(c1n[nH]c(=O)c2cc(F)c(F)cc12)N(C)C(=O)c1ccc2c(ccn2C)c1` (single isomer, unassigned) [Compound 106, N-(1-(6,7-difluoro-4-oxo-3,4-dihydrophthalazin-1-yl)ethyl)-N,1-dimethyl-1H-indole-5-carboxamide] belongs 5.39; to `CC(c1n[nH]c(=O)c2cc(F)c(F)cc12)N(C)C(=O)c1ccc2c(ccn2C)c1` (single isomer, unassigned) [Compound 107, N-(1-(6,7-difluoro-4-oxo-3,4-dihydrophthalazin-1-yl)ethyl)-N,1-dimethyl-1H-indole-5-carboxamide], 6.96; to `CC(c1n[nH]c(=O)c2cc(F)c(F)cc12)N(C)C(=O)c1cc(F)c(C(F)F)c(F)c1` (single isomer, unassigned) [Compound 108, N-(1-(6,7-difluoro-4-oxo-3,4-dihydrophthalazin-1-yl)ethyl)-4-(difluoromethyl)-3,5-difluoro-N-methylbenzamide], 5.00.
Turning to `CC(c1n[nH]c(=O)c2cc(F)c(F)cc12)N(C)C(=O)c1cc(F)c(C(F)F)c(F)c1` (single isomer, unassigned) [Compound 109, N-(1-(6,7-difluoro-4-oxo-3,4-dihydrophthalazin-1-yl)ethyl)-4-(difluoromethyl)-3,5-difluoro-N-methylbenzamide], the negative logarithm of the EC50 (pEC50) is 6.96.
Turning to `CC(c1n[nH]c(=O)c2cc(F)c(F)cc12)N(C)C(=O)c1ccc2[nH]ncc2c1` (single isomer, unassigned) [Compound 110, N-(1-(6,7-difluoro-4-oxo-3,4-dihydrophthalazin-1-yl)ethyl)-N-methyl-1H-indazole-5-carboxamide], the pEC50 was under 4.60.
The same measure, in the same setting: the figure for `CC(c1n[nH]c(=O)c2cc(F)c(F)cc12)N(C)C(=O)c1ccc2[nH]ncc2c1` (single isomer, unassigned) [Compound 111, N-(1-(6,7-difluoro-4-oxo-3,4-dihydrophthalazin-1-yl)ethyl)-N-methyl-1H-indazole-5-carboxamide] is 5.05; for `CC(c1n[nH]c(=O)c2cc(F)c(F)cc12)N(C)C(=O)c1ccc2cn[nH]c2c1` (single isomer, unassigned) [Compound 112, N-(1-(6,7-difluoro-4-oxo-3,4-dihydrophthalazin-1-yl)ethyl)-N-methyl-1H-indazole-6-carboxamide] it is under 4.60.
On the same count and under the same terms, to `CC(c1n[nH]c(=O)c2cc(F)c(F)cc12)N(C)C(=O)c1ccc2cn[nH]c2c1` (single isomer, unassigned) [Compound 113, N-(1-(6,7-difluoro-4-oxo-3,4-dihydrophthalazin-1-yl)ethyl)-N-methyl-1H-indazole-6-carboxamide] belongs 5.60.

The test is the same for the next values; noted with them: Hepatitis B virus, HepDE19, 168 h, HepDE19 cells, 7 day incubation, rcDNA measured by Quantigene 2.0 bDNA assay; top concentration 25 µM; read-out: DE-19bDNA EC50.
Turning to `C[C@@H](c1n[nH]c(=O)c2cc(F)c(F)cc12)N(C)C(=O)Nc1ccc(F)c(Cl)c1` [Compound 31, 3-(3-chloro-4-fluorophenyl)-1-(1-(6,7-difluoro-4-oxo-3,4-dihydrophthalazin-1-yl)ethyl)-1-methylurea], the pEC50 was 5.74.
Same read-out and setting: the figure for `CC(c1n[nH]c(=O)c2c(F)cccc12)N(C)C(=O)Nc1ccc(F)c(Cl)c1` (stereo not drawn) [Compound 44, 3-(3-chloro-4-fluorophenyl)-1-(1-(5-fluoro-4-oxo-3,4-dihydrophthalazin-1-yl)ethyl)-1-methylurea] is 6.54; for `CC(c1n[nH]c(=O)c2c(F)cccc12)N(C)C(=O)Nc1ccc(F)c(F)c1` (stereo not drawn) [Compound 45, 3-(3,4-difluorophenyl)-1-(1-(5-fluoro-4-oxo-3,4-dihydrophthalazin-1-yl)ethyl)-1-methylurea] it is 6.10.

The same test, now with this note: Hepatitis B virus, HepDE19, 168 h, read-out: DE-19bDNA EC50.
As to `C[C@H](c1nn(C)c(=O)c2cc(F)c(F)cc12)N(C)C(=O)Nc1ccc(F)c(Cl)c1` [Compound 36, (R)-3-(3-chloro-4-fluorophenyl)-1-[1-(6,7-difluoro-3-methyl-4-oxo-phthalazin-1-yl)ethyl]-1-methyl-urea], the pEC50 was 7.89.
On the same count and under the same terms, to `C[C@@H](c1nn(C)c(=O)c2cc(F)c(F)cc12)N(C)C(=O)Nc1ccc(F)c(Cl)c1` [Compound 37, (S)-3-(3-chloro-4-fluorophenyl)-1-(1-(6,7-difluoro-3-methyl-4-oxo-3,4-dihydrophthalazin-1-yl)ethyl)-1-methylurea] belongs 5.64; to `C[C@@H](c1nn(C)c(=O)c2cc(F)c(F)cc12)N(C)C(=O)Nc1ccc(F)cc1` [Compound 38, (S)(1-(6,7-difluoro-3-methyl-4-oxo-3,4-dihydrophthalazinyl)ethyl)-3-(4-fluorophenyl)methylurea], 5.09; to `CC(C)CN(C(=O)Nc1ccccc1)C(C)c1n[nH]c(=O)c2cc(F)c(F)cc12` (stereo not drawn) [Compound 40, 1-(1-(6,7-difluoro-4-oxo-3,4-dihydrophthalazin-1-yl)ethyl)-1-isobutyl-3-phenylurea], 7.77.
On the same count and under the same terms, to `C[C@H](c1n[nH]c(=O)c2cc(F)c(F)cc12)N(C)C(=O)Nc1ccc(F)c(F)c1` [Compound 41, (R)(1-(6,7-difluoro-4-oxo-3,4-dihydrophthalazinyl)ethyl)methyl-3-(3,4-difluorophenyl)urea] belongs 7.62; to `C[C@H](c1n[nH]c(=O)c2cc(F)c(F)cc12)N(C)C(=O)Nc1cc(F)c(F)c(F)c1` [Compound 42, (R)(1-(6,7-difluoro-4-oxo-3,4-dihydrophthalazinyl)ethyl)methyl-3-(3,4,5-trifluorophenyl)urea], 7.60.
Same read-out and setting: to `C[C@H](c1n[nH]c(=O)c2cc(F)c(F)cc12)N(C)C(=O)Nc1ccc(F)cc1` [Compound 43, (R)(1-(6,7-difluoro-4-oxo-3,4-dihydrophthalazinyl)ethyl)-3-(4-fluorophenyl)methylurea] belongs 7.23; to `C[C@H](c1n[nH]c(=O)c2cc(F)c(F)cc12)N(C)C(=O)c1cc2ccccc2[nH]1` [Compound 46, (R)-N-(1-(6,7-difluoro-4-oxo-3,4-dihydrophthalazin-1-yl)ethyl)-N-methyl-1H-indole-2-carboxamide], 7.49.
For the compound `C[C@H](c1n[nH]c(=O)c2cc(F)c(F)cc12)N(C)C(=O)c1cc2c(F)c(F)ccc2[nH]1` [Compound 57, (R)-N-(1-(6,7-difluoro-4-oxo-3,4-dihydrophthalazin-1-yl)ethyl)-4,5-difluoro-N-methyl-1H-indole-2-carboxamide], the pEC50 is 7.92.
Same read-out and setting: to `C[C@H](c1n[nH]c(=O)c2cc(F)c(F)cc12)N(C)C(=O)c1cc2c([nH]1)CCCC2` [Compound 58, (R)-N-(1-(6,7-difluoro-4-oxo-3,4-dihydrophthalazin-1-yl)ethyl)-N-methyl-4,5,6,7-tetrahydro-1H-indole-2-carboxamide] belongs 6.92.

Usually pEC50 stands for the EC50 on a negative log10 scale, so that one unit is a factor of ten.

The values above are taken from patent US20230312481A1, “SUBSTITUTED (PHTHALAZIN-1-YLMETHYL)UREAS, SUBSTITUTED N-(PHTHALAZIN-1-YLMETHYL)AMIDES, AND ANALOGUES THEREOF” (priority 2020, published 2023).
